From patent publication US10125098B2, “Therapeutic compounds and methods of use thereof” (GENENTECH, INC., priority 2014, dated 2018)
Counter-ions that a name gives are not always drawn.

Molecular target: T1, hNav1.7 (Homo sapiens, UniProt Q15858)
T1 construct: expressed in transfected cells
Assay: Tritiated compound binding (LBA) to membranes from cells expressing hNav1.7 and the β1 subunit, competitive binding
Settings: competitive binding vs 100 pM [3H]compound, 18 h, room temperature, membranes with hNav1.7 and β1 subunit
Procedure: Tritiated Compound Binding to Membranes
Isolated from Cells that Heterologously Express hNav1.7 and the β1 Subunit
Preparation of membranes containing recombinantly expressed sodium channels: Frozen recombinant cell pellets were thawed on ice and diluted to 4 times the cell pellet weight with ice cold 50 mM Tris HCl, pH 7.4 buffer. The cell suspensions were homogenized on ice using a motorized glass dounce homogeniser. […] The supernatants were collected and centrifuged at 10000×g at 4° C. for 50 min. The pellets were then re-suspended in 100 mM NaCl, 20 mM Tris HCl, pH 7.4 buffer containing 1% v/v protease inhibitors (Calbiochem) and re-homogenized on ice. The homogenized membranes were then processed through a syringe equipped with a 26 gauge needle. Protein concentrations were determined by Bradford Assay and the membranes were stored at −80° C.
Saturation experiments. A representative compound of formula (I) having a methyl group was tritiated. Three tritiums were incorporated in place of methyl hydrogens to generate [^3H]compound. Binding of this radioligand was performed in 5 mL borosilicate glass test tubes at room temperature. Binding was initiated by adding membranes to increasing concentrations of [^3H]compound in 100 mM NaCl, 20 mM Tris HCl, pH 7.4 buffer containing 0.01% w/v bovine serum albumin (BSA) for 18 h. Non-specific binding was determined in the presence of 1 μM unlabeled compound. After 18 h, the reactants were filtered through GF/C glass fiber filters presoaked in 0.5% w/v polyethylene imine. […] [^3H]compound bound to filters was quantified by liquid scintillation counting.
Binding reactions were performed in 96-well polypropylene plates at room temperature for 18 h. In 360 μL, membranes were incubated with 100 pM [^3H]compound and increasing concentrations of Test Compound. Non-specific binding was defined in the presence of 1 μM unlabeled compound. Reactions were transferred and filtered through 96-well glass fiber/C filter plates presoaked with 0.5% polyethylene imine. […] Bound radioactivity was determined by liquid scintillation counting.
Data Analysis: For saturation experiments, non-specific binding was subtracted from total binding to provide specific binding and these values were recalculated in terms of pmol ligand bound per mg protein. Saturation curves were constructed and dissociation constants were calculated using the single site ligand binding model: Beq=(Bmax*X)/(X+Kd), where Beq is the amount of ligand bound at equilibrium, Bmax is the maximum receptor density, Kd is the dissociation constant for the ligand, and X is the free ligand concentration. For competition studies percent inhibition was determined and IC50 values were calculated using a 4 parameter logistic model (% inhibition=(A+((B−A)/(1+((x/C)^D)))) using XLfit, where A and B are the maximal and minimum inhibition respectively, C is the IC50 concentration and D is the (Hill) slope.

T1 sequence (Q15858 1-1977 isoform Q15858-3): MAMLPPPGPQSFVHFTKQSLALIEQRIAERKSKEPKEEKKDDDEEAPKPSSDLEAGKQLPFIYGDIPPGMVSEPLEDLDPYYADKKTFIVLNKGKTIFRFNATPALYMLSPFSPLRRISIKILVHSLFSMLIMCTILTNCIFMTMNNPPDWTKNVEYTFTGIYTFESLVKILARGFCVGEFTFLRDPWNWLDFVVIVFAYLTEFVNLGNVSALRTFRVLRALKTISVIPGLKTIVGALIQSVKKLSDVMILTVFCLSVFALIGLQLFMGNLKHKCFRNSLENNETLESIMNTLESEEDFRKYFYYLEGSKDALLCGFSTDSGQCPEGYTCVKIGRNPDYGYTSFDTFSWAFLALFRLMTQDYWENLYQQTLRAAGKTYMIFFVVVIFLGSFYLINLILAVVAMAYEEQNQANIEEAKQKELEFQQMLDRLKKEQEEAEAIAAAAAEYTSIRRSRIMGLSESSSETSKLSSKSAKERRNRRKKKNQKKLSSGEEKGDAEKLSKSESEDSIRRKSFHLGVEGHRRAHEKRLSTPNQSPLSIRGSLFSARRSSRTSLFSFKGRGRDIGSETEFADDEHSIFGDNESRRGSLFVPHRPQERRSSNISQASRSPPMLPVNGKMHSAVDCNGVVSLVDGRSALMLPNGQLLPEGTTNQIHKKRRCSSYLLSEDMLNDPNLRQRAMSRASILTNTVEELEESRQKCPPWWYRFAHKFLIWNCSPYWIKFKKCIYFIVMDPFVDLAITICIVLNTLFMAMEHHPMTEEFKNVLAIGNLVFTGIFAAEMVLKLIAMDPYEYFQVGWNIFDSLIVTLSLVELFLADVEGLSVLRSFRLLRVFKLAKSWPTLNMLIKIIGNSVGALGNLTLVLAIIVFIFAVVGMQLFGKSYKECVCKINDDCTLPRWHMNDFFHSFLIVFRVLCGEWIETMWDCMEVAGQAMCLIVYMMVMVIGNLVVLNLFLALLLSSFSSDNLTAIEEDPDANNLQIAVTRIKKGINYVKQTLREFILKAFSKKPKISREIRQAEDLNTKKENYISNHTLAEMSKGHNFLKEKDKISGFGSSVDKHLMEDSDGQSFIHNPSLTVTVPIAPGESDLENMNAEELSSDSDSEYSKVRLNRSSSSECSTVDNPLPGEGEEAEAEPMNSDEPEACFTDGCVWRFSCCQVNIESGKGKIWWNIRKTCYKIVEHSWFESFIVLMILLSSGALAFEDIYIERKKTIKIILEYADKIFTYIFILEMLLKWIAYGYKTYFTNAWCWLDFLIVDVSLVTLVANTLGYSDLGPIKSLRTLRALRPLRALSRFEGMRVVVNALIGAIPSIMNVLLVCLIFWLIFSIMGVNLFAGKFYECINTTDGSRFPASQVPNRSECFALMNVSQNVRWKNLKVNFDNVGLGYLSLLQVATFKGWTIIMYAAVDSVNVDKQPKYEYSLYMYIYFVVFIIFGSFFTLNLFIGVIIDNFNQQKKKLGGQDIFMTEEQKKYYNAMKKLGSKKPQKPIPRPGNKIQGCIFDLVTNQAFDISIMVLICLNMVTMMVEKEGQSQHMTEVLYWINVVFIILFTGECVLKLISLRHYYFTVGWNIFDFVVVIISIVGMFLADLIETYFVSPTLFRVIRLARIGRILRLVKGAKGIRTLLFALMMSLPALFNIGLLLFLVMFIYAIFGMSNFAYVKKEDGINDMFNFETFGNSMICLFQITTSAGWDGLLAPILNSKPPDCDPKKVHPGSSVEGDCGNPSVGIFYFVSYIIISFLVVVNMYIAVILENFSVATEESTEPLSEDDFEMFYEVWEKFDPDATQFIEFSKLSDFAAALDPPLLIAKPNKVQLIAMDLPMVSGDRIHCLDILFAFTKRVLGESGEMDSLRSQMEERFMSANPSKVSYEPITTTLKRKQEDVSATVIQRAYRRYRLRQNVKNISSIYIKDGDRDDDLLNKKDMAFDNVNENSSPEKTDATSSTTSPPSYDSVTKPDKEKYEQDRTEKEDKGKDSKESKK
T1 sequence (Q07699 19-218 partner): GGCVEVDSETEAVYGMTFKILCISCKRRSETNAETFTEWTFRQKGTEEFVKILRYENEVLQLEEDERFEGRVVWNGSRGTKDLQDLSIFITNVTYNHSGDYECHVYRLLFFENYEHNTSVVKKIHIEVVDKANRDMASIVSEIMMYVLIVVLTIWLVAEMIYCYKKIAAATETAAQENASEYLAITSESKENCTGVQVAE

Structure (SMILES) | IC50 [nM]
O=C(O)[C@H]1CCCN1C(=O)c1cc(C2CC2)c(OCC23CC4CC(CC(C4)C2)C3)cc1F [Example 2, (R)-1-(4-(adamantan-1-ylmethoxy)-5-cyclopropyl-2-fluorobenzoyl)pyrrolidine-2-carboxylic acid] | 426
CC12CC3(C)CC(C)(C1)CC(COc1cc(F)c(C(=O)N4CCC[C@H]4C(=O)O)cc1C1CC1)(C2)C3 [Example 3, (S)-1-(5-cyclopropyl-2-fluoro-4-((3,5,7-trimethyladamantan-1-yl)methoxy)benzoyl)pyrrolidine-2-carboxylic acid] | 8.9
O=C(O)[C@@H]1CCCN1C(=O)c1cc(C2CC2)c(OCC23CC4(F)CC(F)(CC(F)(C4)C2)C3)cc1F [Example 4, (5)-1-(5-cyclopropyl-2-fluoro-4-((3,5,7-trifluoroadamantan-1-yl)methoxy)benzoyl)pyrrolidine-2-carboxylic acid] | 817
O=C(O)[C@@H]1CCCN1C(=O)c1cc(C2CC2)c(CN2CCO[C@H](Cc3cc(Cl)cc(Cl)c3)C2)cc1F [Example 5, (S)-1-(5-cyclopropyl-4-(((R)-2-(3,5-dichlorobenzyl)morpholino)methyl)-2-fluorobenzoyl)pyrrolidine-2-carboxylic acid trifluoroacetic acid salt] | 468
CN(C(=O)c1cc(C2CC2)c(OCC23CC4CC(CC(C4)C2)C3)cc1F)C1(C(=O)O)CC1 [Example 7, 1-(4-(adamantan-1-ylmethoxy)-5-cyclopropyl-2-fluoro-N-methylbenzamido)-cyclopropanecarboxylic acid] | 3050
CC(C)(NC(=O)c1cc(C2CC2)c(OCC23CC4CC(CC(C4)C2)C3)cc1F)C(=O)O [Example 8, 2-(4-(adamantan-1-ylmethoxy)-5-cyclopropyl-2-fluorobenzamido)-2-methylpropanoic acid] | 1690
C[C@@H](Oc1ccc(Cl)c(Cl)c1)c1cc(F)c(C(=O)NC2(C(=O)O)CC2)cc1C1CC1 [Example 9, (R)-1-(5-cyclopropyl-4-(1-(3,4-dichlorophenoxy)ethyl)-2-fluorobenzamido)cyclopropanecarboxylic acid] | > 10000
COC[C@H](NC(=O)c1cc(C2CC2)c(OCC23CC4CC(CC(C4)C2)C3)cc1F)C(=O)O [Example 10, (S)-2-(4-(adamantan-1-ylmethoxy)-5-cyclopropyl-2-fluorobenzamido)-3-methoxypropanoic acid] | 681
CC1(COc2cc(F)c(C(=O)N3CCC[C@H]3C(=O)O)cc2C2CC2)CCC(F)(F)CC1 [Example 12, (S)-1-(5-cyclopropyl-4-((4,4-difluoro-1-methylcyclohexyl)methoxy)-2-fluorobenzoyl)pyrrolidine-2-carboxylic acid] | 984
O=C(O)[C@@H]1CCCN1C(=O)c1cc(C2CC2)c(OCC2CCCCC2)cc1F [Example 13, (S)-1-(4-(cyclohexylmethoxy)-5-cyclopropyl-2-fluorobenzoyl)pyrrolidine-2-carboxylic acid] | 173
C[C@@H](Oc1ccc(Cl)c(Cl)c1)c1cc(F)c(C(=O)N2CCC[C@H]2C(=O)O)cc1C1CC1 [Example 14, (S)-1-(5-cyclopropyl-4-((R)-1-(3,4-dichlorophenoxy)ethyl)-2-fluorobenzoyl)pyrrolidine-2-carboxylic acid] | 2370
C[C@@H](Oc1cnc(C2CC2)c(Cl)c1)c1cc(F)c(C(=O)N2CCC[C@H]2C(=O)O)cc1C1CC1 [Example 15, (S)-1-(4-((R)-1-((5-chloro-6-cyclopropylpyridin-3-yl)oxy)ethyl)-5-cyclopropyl-2-fluorobenzoyl)pyrrolidine-2-carboxylic acid] | 6960
CC1(C)CCCC(COc2cc(F)c(C(=O)N3CCC[C@H]3C(=O)O)cc2C2CC2)C1 (stereo partly drawn) [Example 16, (2S)-1-(5-cyclopropyl-4-((3,3-dimethylcyclohexyl)methoxy)-2-fluorobenzoyl)pyrrolidine-2-carboxylic acid] | 39.8
